Laboratory results published in PubChem BioAssay AID2060890 (Molecular Pharmacology Branch, DTP, NCI, 2025).
Blank lines part the entries; values can stand above or below the compound they belong to.

Tested on: LG0703-F948-PDC complex spheroid viability
Experiment: Anticancer human tumor LG0703-F948-PDC patient-derived lung adenocarcinoma cell line growth inhibition [RAS]
Settings: for viability, T/C: stronger effect = lower value; for IC50: curve of first compound
Outline: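 Tumour cells grown as complex spheroids with HUVEC endothelial cells and mesenchymal stem cells, treated with RAS pathway inhibitor combinations. Each agent spans half-log steps from near clinical Cmax, or 10 microM where Cmax is unknown.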

[1] = second compound 0.000949 µM, first compound 0.0316 µM
[2] = second compound 0.000949 µM, first compound 0.1 µM
[3] = second compound 0.003 µM, first compound 0.0316 µM
[4] = second compound 0.003 µM, first compound 0.1 µM
[5] = second compound 0.00949 µM, first compound 0.0316 µM
[6] = second compound 0.00949 µM, first compound 0.1 µM
[7] = second compound 0.03 µM, first compound 0.0316 µM
[8] = second compound 0.03 µM, first compound 0.1 µM
[9] = second compound 0.0949 µM, first compound 0.0316 µM
[10] = second compound 0.0949 µM, first compound 0.1 µM
[11] = second compound 0.3 µM, first compound 0.0316 µM
[12] = second compound 0.3 µM, first compound 0.1 µM
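Further: spheroids exposed to agents for 7 days.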
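Wherever viability, T/C is given: 100% = DMSO vehicle wells.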

Structure (SMILES): CCn1c(-c2cccnc2C(C)OC)c2c3cc(ccc31)N1CCOC(CC(NC(=O)C(C(C)C)N(C)C(=O)C3(F)CCN(C(=O)C#CC(C)(C)N(C)C)CC3)C(=O)N3CCCC(N3)C(=O)OCC(C)(C)C2)C1 (centres undefined)
viability, T/C (compound 0.000949 µM): 99.8% [middle of 8 runs]
viability, T/C (compound 0.00949 µM): 101% [middle of 8 runs]
viability, T/C (compound 0.03 µM): 101% [middle of 8 runs]
viability, T/C (compound 0.0949 µM): 82.6% [middle of 8 runs]
viability, T/C (compound 0.3 µM): 50.1% [middle of 8 runs]

IC50 (second compound 0.000949 µM): < 31.6 nM
IC50 (second compound 0.003 µM): < 31.6 nM
IC50 (second compound 0.00949 µM): < 31.6 nM
IC50 (second compound 0.03 µM): < 31.6 nM
IC50 (second compound 0.0949 µM): < 31.6 nM
IC50 (second compound 0.3 µM): < 31.6 nM
Structure (SMILES): NC1c2ccccc2OC12CCN(c1cnc3c(N4CCCc5ncccc54)n[nH]c3n1)CC2 (centres undefined) + CCn1c(-c2cc(N3CCN(C)CC3)cnc2C(C)OC)c2c3cc(ccc31)-c1csc(n1)CC(NC(=O)C1CC1C)C(=O)N1CCCC(N1)C(=O)OCC(C)(C)C2
viability, T/C [1]: 30.3%
viability, T/C [2]: 19.3%
viability, T/C (second compound 0.000949 µM, first compound 0.316 µM): 11%
viability, T/C (second compound 0.000949 µM, first compound 1 µM): 8.58%
viability, T/C (second compound 0.000949 µM, first compound 3.16 µM): 5.25%
viability, T/C (second compound 0.000949 µM, first compound 10 µM): 1.78%
viability, T/C [3]: 20.3%
viability, T/C [4]: 11.8%
viability, T/C (second compound 0.003 µM, first compound 0.316 µM): 9.37%
viability, T/C (second compound 0.003 µM, first compound 1 µM): 8.15%
viability, T/C (second compound 0.003 µM, first compound 3.16 µM): 3.56%
viability, T/C (second compound 0.003 µM, first compound 10 µM): 1.82%
viability, T/C [5]: 14.5%
viability, T/C [6]: 7.88%
viability, T/C (second compound 0.00949 µM, first compound 0.316 µM): 5.28%
viability, T/C (second compound 0.00949 µM, first compound 1 µM): 4.34%
viability, T/C (second compound 0.00949 µM, first compound 3.16 µM): 2.68%
viability, T/C (second compound 0.00949 µM, first compound 10 µM): 2.25%
viability, T/C [7]: 8.5%
viability, T/C [8]: 6.42%
viability, T/C (second compound 0.03 µM, first compound 0.316 µM): 4.71%
viability, T/C (second compound 0.03 µM, first compound 1 µM): 2.66%
viability, T/C (second compound 0.03 µM, first compound 3.16 µM): 2.29%
viability, T/C (second compound 0.03 µM, first compound 10 µM): 2.1%
viability, T/C [9]: 6.81%
viability, T/C [10]: 4.57%
viability, T/C (second compound 0.0949 µM, first compound 0.316 µM): 4.01%
viability, T/C (second compound 0.0949 µM, first compound 1 µM): 2.85%
viability, T/C (second compound 0.0949 µM, first compound 3.16 µM): 3.37%
viability, T/C (second compound 0.0949 µM, first compound 10 µM): 1.78%
viability, T/C [11]: 3.46%
viability, T/C [12]: 4.3%
viability, T/C (second compound 0.3 µM, first compound 0.316 µM): 3.62%
viability, T/C (second compound 0.3 µM, first compound 1 µM): 2.74%
viability, T/C (second compound 0.3 µM, first compound 3.16 µM): 1.58%
viability, T/C (second compound 0.3 µM, first compound 10 µM): 1.7%

IC50 (second compound 0.000949 µM): 1.53 nM
IC50 (second compound 0.003 µM): 0.429 nM
IC50 (second compound 0.00949 µM): < 0.316 nM
IC50 (second compound 0.03 µM): < 0.316 nM
IC50 (second compound 0.0949 µM): < 0.316 nM
IC50 (second compound 0.3 µM): < 0.316 nM
Structure (SMILES): CC(C)n1nc(-c2ccc3oc(N)nc3c2)c2c(N)ncnc21 + CCn1c(-c2cc(N3CCN(C)CC3)cnc2C(C)OC)c2c3cc(ccc31)-c1csc(n1)CC(NC(=O)C1CC1C)C(=O)N1CCCC(N1)C(=O)OCC(C)(C)C2
viability, T/C (second compound 0.000949 µM, first compound 0.000316 µM): 66.8%
viability, T/C (second compound 0.000949 µM, first compound 0.001 µM): 56.5%
viability, T/C (second compound 0.000949 µM, first compound 0.00316 µM): 38.5%
viability, T/C (second compound 0.000949 µM, first compound 0.01 µM): 30.5%
viability, T/C [1]: 12.7%
viability, T/C [2]: 5.51%
viability, T/C (second compound 0.003 µM, first compound 0.000316 µM): 55.5%
viability, T/C (second compound 0.003 µM, first compound 0.001 µM): 34.8%
viability, T/C (second compound 0.003 µM, first compound 0.00316 µM): 29.7%
viability, T/C (second compound 0.003 µM, first compound 0.01 µM): 13.1%
viability, T/C [3]: 8.23%
viability, T/C [4]: 3.1%
viability, T/C (second compound 0.00949 µM, first compound 0.000316 µM): 31.1%
viability, T/C (second compound 0.00949 µM, first compound 0.001 µM): 20.7%
viability, T/C (second compound 0.00949 µM, first compound 0.00316 µM): 12.6%
viability, T/C (second compound 0.00949 µM, first compound 0.01 µM): 6.99%
viability, T/C [5]: 4.36%
viability, T/C [6]: 2.06%
viability, T/C (second compound 0.03 µM, first compound 0.000316 µM): 12.7%
viability, T/C (second compound 0.03 µM, first compound 0.001 µM): 13.1%
viability, T/C (second compound 0.03 µM, first compound 0.00316 µM): 6.11%
viability, T/C (second compound 0.03 µM, first compound 0.01 µM): 5.4%
viability, T/C [7]: 2.59%
viability, T/C [8]: 1.58%
viability, T/C (second compound 0.0949 µM, first compound 0.000316 µM): 12.9%
viability, T/C (second compound 0.0949 µM, first compound 0.001 µM): 8.35%
viability, T/C (second compound 0.0949 µM, first compound 0.00316 µM): 6.05%
viability, T/C (second compound 0.0949 µM, first compound 0.01 µM): 3.05%
viability, T/C [9]: 1.82%
viability, T/C [10]: 1.05%
viability, T/C (second compound 0.3 µM, first compound 0.000316 µM): 10.7%
viability, T/C (second compound 0.3 µM, first compound 0.001 µM): 7.72%
viability, T/C (second compound 0.3 µM, first compound 0.00316 µM): 4.76%
viability, T/C (second compound 0.3 µM, first compound 0.01 µM): 3.02%
viability, T/C [11]: 1.64%
viability, T/C [12]: 0.76%
